The numbers were not newly measured in patent US8858979B1, “Service induced byproducts for localized drug delivery in orthopaedic implants” (Clemson University, priority 2011, dated 2014), which cites them from elsewhere.

The data set has as its system cell proliferation. As to conditions: reported data, estimated.

Consider `NCCCC(O)(P(=O)([O-])O)P(=O)(O)O.[Na+]` [alendronate, alendronate sodium], for which the “concentration that can inhibit cell proliferation” value is “about 10^−4 M”.
